Measurements: US20060257489A1, “Fine particles, method and device for preparation thereof, and agent for parenteral injection and method for production thereof” (priority 2003, published 2006)

Key:
Type in all cases: physicochemical
[1] = particle diameter estimated from the absorbance characteristic after fine pulverization; conditions: for particle diameter after fine pulverization treatment: 355 nm, 310 mJ/cm^2Pulse
Source text: The measured value (R) of the absorbance measured by the general-purpose spectrophotometer contains the light absorption (A1) of finely-pulverized carbamazepine itself, the light scattering (S) and the light absorption (A2) of the added surfactant. A1 represents the fine pulverization state of carbamazepine, and it is estimated that the average particle diameter of carbamazepine is smaller as the light absorption is larger. Therefore, in order to estimate the particle diameter of carbamazepine after the treatment, with respect to the absorbance on the ordinate axis in FIG. 8, the increment (S) of the absorbance by the light scattering at each wavelength is approximated to the measured value (S1) of 500 nm at which carbamazepine has no absorption, and the measured value R of the absorbance is corrected to the absorbance A1 by using the operation of A1≈R−A2-S1.
The absorbance characteristic after the laser beam irradiation was measured in the same manner as example 3. In FIG. 9, the solid line represents the absorbance characteristic of the treatment target liquid using the surfactant liquid having the concentration of 1/1000, the one-dot-dashed line represents the absorbance characteristic of the treatment target liquid using the surfactant liquid having the concentration of 1/100, and the two-dot-dashed line represents the absorbance characteristic of the treatment target liquid using the surfactant liquid having the concentration of 1/10. The dashed line represents the absorbance characteristic of the treatment target liquid using no surfactant.

[2] = observation of apparent dissolution in water after laser fine pulverization
Procedure: Subsequently, carbamazepine was suspended in water so that the concentration thereof was equal to 2 mg/ml, thereby preparing suspended liquid, and triple higher harmonics of YAG laser ([…], FWHM=4 ns, 20 Hz, irradiation time: 15 minutes) was irradiated to the suspended liquid.

[3] = absorbance characteristic before and after laser beam irradiation (photochemical reaction / degeneration)
Procedure: (§1) The absorbance characteristic of the solution was measured by using a general-purpose spectrophotometer (HITACHI U-3500). […] The optical path length was set to 10 mm for the measurement.

[4] = variation of the absorbance characteristic of the finely-pulverized solution with time lapse after laser beam irradiation (dispersion stability); conditions: finely-pulverized solution in water (355 nm, 380 mJ/cm^2Pulse, 15 minutes), after six days
Procedure: as §1
The absorbance characteristic indicated by the dashed line is the one before laser beam irradiation.

[5] = purity after fine pulverization treatment by HPLC, laser beam wavelength dependence; conditions: one hour
Procedure: In this example, fine pulverization of clobetasone butyrate as adrenal cortex hormone of hardly-soluble medicament was attempted. […] A stirring magnet stick for stirring the liquid was put in the square cell so that a laser beam was uniformly irradiated to the suspended liquid. The temperature of the suspended liquid was set to room temperature of 25° C. at all times except for a temperature dependence test.
In this example, a continuously wavelength-variable OPO parametric oscillator was used as a light source for fine pulverization because the wavelength dependence of the fine pulverization and photochemical reaction by laser beam irradiation was required to be investigated. The pulse width of the irradiation laser beam was set to FWHM 4 ns, and the repetition frequency was set to 10 Hz.
Subsequently, the irradiation wavelength of the laser beam was varied and the test was carried out.

NC(=O)N1c2ccccc2C=Cc2ccccc21 [carbamazepine]
particle diameter after fine pulverization treatment ([1]; 15 minutes, 1 mg/ml in water): sub-micron or less | dissolution when suspended in pure water ([2]; precipitate after laser treatment (355 nm, 430 mJ/cm^2Pulse, 15 minutes)): instantaneously dissolved | dissolution when suspended in pure water ([2]; sample before the treatment): hardly dissolved | photochemical reaction on laser beam irradiation ([3]; 1 mg/ml suspended in water, 355 nm, 310 mJ/cm^2Pulse, 15 minutes, with and without surfactant Tween20): no photochemical reaction is induced | photochemical reaction on laser beam irradiation ([3]; 2 mg/ml suspended in water, 355 nm, 430 mJ/cm^2Pulse, 15 minutes): little photochemical reaction occurred

CCCC(=O)O[C@]1(C(=O)CCl)[C@H](C)C[C@@H]2[C@@H]3CCC4=CC(=O)C=C[C@]4(C)[C@]3(F)C(=O)C[C@@]21C [clobetasone butyrate]
degree of fine pulverization of the suspended liquid ([1]; 0.5 mg/ml in water, YAG pulse laser 1064 nm, 1700 mJ/cm^2 per pulse, one hour): sub-micrometer order | particle diameter after fine pulverization treatment ([1]; with added surfactant Tween20): sub-micron or less | precipitation caused by the aggregation of fine particles [4]: rarely observed | appearance of the solution after the laser beam irradiation ([2]; water, 355 nm, 380 mJ/cm^2Pulse): transparent | degeneration after the treatment ([3]; 355 nm treatment, UV absorption curves just after the treatment and after six days): no degeneration occurred | photochemical reaction on laser beam irradiation ([3]; Kr-F laser 248 nm, otherwise as example 1): some photochemical reaction occurs | purity after fine pulverization treatment (HPLC) ([5]; laser beam wavelength 500 nm or less): degradation is also small | purity after fine pulverization treatment (HPLC) ([5]; laser beam wavelength 500 to 800 nm): great degradation of the purity
